Measurements from publication doi:10.1101/2024.08.19.608619, “Discovery of potent SARS-CoV-2 nsp3 macrodomain inhibitors uncovers lack of translation to cellular antiviral response” (bioRxiv, 2024).
Like-named read-outs stand apart in the source and are kept apart here.

How the values were obtained:
[1] = target: T1, SARS-CoV-2 nsp3-mac1 (Severe acute respiratory syndrome coronavirus 2, UniProt P0DTD1); experiment: biochemical; design: SARS-CoV-2 nsp3 macrodomain TR-FRET single point, per cent inhibition, n=2
[2] = target: T1, SARS-CoV-2 nsp3-mac1; experiment: biochemical; type: biochemical; conditions: SARS-CoV-2 nsp3 macrodomain TR-FRET single point
[3] = read-out: perc_inhibition_mean, batch_name=ASAP-0000061-002

**Q.** How did the inhibition at 50 µM ([1]; read-out: perc_inhibition_mean, batch_name=ASAP-0000053-001) turn out when `CCCNC(=O)[C@H]1CCCN(c2ncnc3[nH]ccc23)C1` [ASAP-0000053] was run?
**A.** The inhibition at 50 µM was -4.36%.

**Q.** What about the perc_inhibition_mean ([2]; concentration 50.0 uM) of the same compound?
**A.** The perc_inhibition_mean was -4.36%.

**Q.** `c1cnc([C@@H]2CCN(c3ncnc4[nH]ccc34)C2)cn1` [ASAP-0000054] was tested. Which inhibition at 50 µM ([1]; read-out: perc_inhibition_mean, batch_name=ASAP-0000054-001) did it give?
**A.** Its inhibition at 50 µM is -1.7%.

**Q.** What about the perc_inhibition_mean ([2]; concentration 50.0 uM) of the same compound?
**A.** The perc_inhibition_mean was -1.697%.

**Q.** For `c1nc(N2CCC[C@@H](c3nc4c(s3)CCC4)C2)c2c[nH]nc2n1` [ASAP-0000055], which inhibition at 50 µM ([1]; read-out: perc_inhibition_mean, batch_name=ASAP-0000055-001) is on record?
**A.** Its inhibition at 50 µM is 3.83%.

**Q.** And the perc_inhibition_mean ([2]; concentration 50.0 uM)?
**A.** Its perc_inhibition_mean is 3.826%.

**Q.** With `O[C@@]1(C(F)(F)F)CCCN(c2ncnc3n[nH]cc23)CC1` [ASAP-0000057] as the compound, how does the inhibition at 50 µM ([1]; read-out: perc_inhibition_mean, batch_name=ASAP-0000057-001) read?
**A.** Its inhibition at 50 µM is -4.14%.

**Q.** And the perc_inhibition_mean ([2]; concentration 50.0 uM)?
**A.** Its perc_inhibition_mean is -4.139%.

**Q.** How did the inhibition at 50 µM ([1]; read-out: perc_inhibition_mean, batch_name=ASAP-0000058-001) turn out when `CN(C)[C@@H]1CCCN(C(=O)c2cnc3c(c2)c(=O)[nH]c(=O)n3C)CC1` [ASAP-0000058] was run?
**A.** The inhibition at 50 µM was -8.97%.

**Q.** And the perc_inhibition_mean ([2]; concentration 50.0 uM)?
**A.** The perc_inhibition_mean was -8.971%.

**Q.** `c1ccc(-c2n[nH]cc2CNc2cnc3[nH]ncc3c2)cc1` [ASAP-0000059] was tested. Which inhibition at 50 µM ([1]; read-out: perc_inhibition_mean, batch_name=ASAP-0000059-001) did it give?
**A.** The inhibition at 50 µM was -2.04%.

**Q.** And the perc_inhibition_mean ([2]; concentration 50.0 uM)?
**A.** The perc_inhibition_mean was -2.044%.

**Q.** Which results are given for `COc1cc(Nc2ncnc3[nH]ccc23)ccc1NC(C)=O` [ASAP-0000060]?
**A.** inhibition at 50 µM ([1]; read-out: perc_inhibition_mean, batch_name=ASAP-0000060-001): -7.76%; perc_inhibition_mean ([2]; concentration 50.0 uM): -7.761%

**Q.** What does the source list for `O=C(Nc1cnc2[nH]ncc2c1)c1ccncc1Cl` [ASAP-0000061]?
**A.** inhibition at 50 µM ([1]; read-out: perc_inhibition_mean, batch_name=ASAP-0000061-001): -0.272%; inhibition at 50 µM [1, 3]: -2.75%; inhibition at 100 µM [1, 3]: 2.96%; perc_inhibition_mean ([2]; concentration 50.0 uM): -0.272%; perc_inhibition_mean ([2]; concentration 50.0 uM, n=2): -2.752%; perc_inhibition_mean ([2]; concentration 100.0 uM, n=2): 2.961%

**Q.** With `NC(=O)[C@@H]1CCN(C(=O)c2cnc3[nH]c(=O)[nH]c(=O)c3c2)C1` [ASAP-0000062] as the compound, how does the inhibition at 50 µM ([1]; read-out: perc_inhibition_mean, batch_name=ASAP-0000062-001) read?
**A.** The inhibition at 50 µM was -6.32%.

**Q.** And the perc_inhibition_mean ([2]; concentration 50.0 uM)?
**A.** The perc_inhibition_mean was -6.322%.

**Q.** How did the inhibition at 50 µM ([1]; read-out: perc_inhibition_mean, batch_name=ASAP-0000063-001) turn out when `Brc1ccc(-n2nnnc2Sc2ncnc3[nH]ccc23)cc1` [ASAP-0000063] was run?
**A.** Its inhibition at 50 µM is 12.7%.

**Q.** What about the perc_inhibition_mean ([2]; concentration 50.0 uM) of the same compound?
**A.** The perc_inhibition_mean was 12.69%.

**Q.** `c1ccc(-c2cc(CNc3ncnc4[nH]ccc34)on2)cc1` [ASAP-0000064] was tested. Which inhibition at 100 µM ([1]; read-out: perc_inhibition_mean, batch_name=ASAP-0000064-001) did it give?
**A.** Its inhibition at 100 µM is -3.46%.

**Q.** And the perc_inhibition_mean ([2]; concentration 100.0 uM)?
**A.** Its perc_inhibition_mean is -3.456%.

**Q.** Which results are given for `CC1OCCC1(O)CNC(=O)c1ncnc2[nH]ccc12` (stereo not shown) [ASAP-0000065]?
**A.** inhibition at 50 µM ([1]; read-out: perc_inhibition_mean, batch_name=ASAP-0000065-001): 1.86%; perc_inhibition_mean ([2]; concentration 50.0 uM): 1.864%

**Q.** How did the inhibition at 50 µM ([1]; read-out: perc_inhibition_mean, batch_name=ASAP-0000066-001) turn out when `O=C(OCc1ccc(Cl)nc1)c1ncnc2[nH]ccc12` [ASAP-0000066] was run?
**A.** The inhibition at 50 µM was 6.08%.

**Q.** And the perc_inhibition_mean ([2]; concentration 50.0 uM)?
**A.** The perc_inhibition_mean was 6.084%.

**Q.** What does the source list for `O=C(Nc1nc2ccc(F)cc2[nH]1)c1cc(N2CCNC2=O)ccc1F` [ASAP-0000067]?
**A.** inhibition at 50 µM ([1]; read-out: perc_inhibition_mean, batch_name=ASAP-0000067-001): -7.71%; perc_inhibition_mean ([2]; concentration 50.0 uM): -7.707%

**Q.** Which inhibition at 50 µM ([1]; read-out: perc_inhibition_mean, batch_name=ASAP-0000068-001) does the source give for `O=C(NCc1nc(-c2ccco2)n[nH]1)c1cc2nccn2c(=O)[nH]1` [ASAP-0000068] here?
**A.** Its inhibition at 50 µM is -5.42%.

**Q.** And the perc_inhibition_mean ([2]; concentration 50.0 uM)?
**A.** The perc_inhibition_mean was -5.425%.

**Q.** Which inhibition at 50 µM ([1]; read-out: perc_inhibition_mean, batch_name=ASAP-0000069-001) does the source give for `O=C(Nc1ccc(O)cc1)Nc1ccc(Oc2ccccc2)cc1` [ASAP-0000069] here?
**A.** The inhibition at 50 µM was -3.31%.

**Q.** What about the perc_inhibition_mean ([2]; concentration 50.0 uM) of the same compound?
**A.** The perc_inhibition_mean was -3.306%.

**Q.** What does the source list for `COc1nc2cc(NC(=O)c3cc(N4CCNC4=O)ccc3F)ccc2[nH]1` [ASAP-0000070]?
**A.** inhibition at 50 µM ([1]; read-out: perc_inhibition_mean, batch_name=ASAP-0000070-001): -4.21%; perc_inhibition_mean ([2]; concentration 50.0 uM): -4.208%

**Q.** Which inhibition at 50 µM ([1]; read-out: perc_inhibition_mean, batch_name=ASAP-0000071-001) does the source give for `CC(C)OCCNC(=O)c1cc2c(=O)n3ccccc3nc2n1C` [ASAP-0000071] here?
**A.** The inhibition at 50 µM was 14%.

**Q.** What about the perc_inhibition_mean ([2]; concentration 50.0 uM) of the same compound?
**A.** The perc_inhibition_mean was 14.037%.

**Q.** `O=C(O)[C@H]1CCCCCN1C(=O)c1ncnc2[nH]ccc12` [ASAP-0000072] was tested. Which inhibition at 50 µM ([1]; read-out: perc_inhibition_mean, batch_name=ASAP-0000072-001) did it give?
**A.** Its inhibition at 50 µM is 11.8%.

**Q.** What about the perc_inhibition_mean ([2]; concentration 50.0 uM) of the same compound?
**A.** The perc_inhibition_mean was 11.75%.

**Q.** For `C[C@@H](O)[C@@H]1CN(C(=O)c2ncnc3[nH]ccc23)CCO1` [ASAP-0000073], which inhibition at 50 µM ([1]; read-out: perc_inhibition_mean, batch_name=ASAP-0000073-001) is on record?
**A.** Its inhibition at 50 µM is -3.13%.

**Q.** What about the perc_inhibition_mean ([2]; concentration 50.0 uM) of the same compound?
**A.** The perc_inhibition_mean was -3.131%.

**Q.** Which results are given for `c1ccc(Cn2ncc3c2CCC[C@@H]3Nc2ncnc3[nH]ccc23)cc1` [ASAP-0000074]?
**A.** inhibition at 50 µM ([1]; read-out: perc_inhibition_mean, batch_name=ASAP-0000074-001): 5.85%; perc_inhibition_mean ([2]; concentration 50.0 uM): 5.848%

**Q.** Which inhibition at 50 µM ([1]; read-out: perc_inhibition_mean, batch_name=ASAP-0000075-001) does the source give for `FC(F)(F)CO[C@@H]1CCCN(c2ncnc3[nH]ccc23)C1` [ASAP-0000075] here?
**A.** The inhibition at 50 µM was 22.2%.

**Q.** What about the perc_inhibition_mean ([2]; concentration 50.0 uM) of the same compound?
**A.** The perc_inhibition_mean was 22.218%.

**Q.** `C[C@@H](CO)Nc1ncnc2[nH]c(C(=O)OC(C)(C)C)cc12` [ASAP-0000076] was tested. Which inhibition at 50 µM ([1]; read-out: perc_inhibition_mean, batch_name=ASAP-0000076-001) did it give?
**A.** Its inhibition at 50 µM is 10.7%.

**Q.** What about the perc_inhibition_mean ([2]; concentration 50.0 uM) of the same compound?
**A.** Its perc_inhibition_mean is 10.712%.

**Q.** With `CC(C)(C[C@@H]1CCCN(c2ncnc3[nH]ccc23)C1)C(N)=O` [ASAP-0000077] as the compound, how does the inhibition at 50 µM ([1]; read-out: perc_inhibition_mean, batch_name=ASAP-0000077-001) read?
**A.** The inhibition at 50 µM was -1.59%.

**Q.** And the perc_inhibition_mean ([2]; concentration 50.0 uM)?
**A.** Its perc_inhibition_mean is -1.586%.
